Measured values as given in patent publication US12441706B2, “Protein degradation agent compound preparation method and application” (SHANGHAI JEMINCARE PHARMACEUTICALS CO., LTD., priority 2019, dated 2025).

Tests used:
[1] = target: T1, androgen receptor (Homo sapiens, UniProt P10275, T878A); test: In-Cell-Western determination of androgen receptor degradation in LnCaP cells; format: cell-based; details: for Dmax: LNCaP; for DC50: concentration for half of the maximal degradation of AR in LnCaP cells, 24 hours treatment
T1 construct: endogenous in cells; host or cells: LNCaP cells
T1 sequence (P10275 1-920 T878A): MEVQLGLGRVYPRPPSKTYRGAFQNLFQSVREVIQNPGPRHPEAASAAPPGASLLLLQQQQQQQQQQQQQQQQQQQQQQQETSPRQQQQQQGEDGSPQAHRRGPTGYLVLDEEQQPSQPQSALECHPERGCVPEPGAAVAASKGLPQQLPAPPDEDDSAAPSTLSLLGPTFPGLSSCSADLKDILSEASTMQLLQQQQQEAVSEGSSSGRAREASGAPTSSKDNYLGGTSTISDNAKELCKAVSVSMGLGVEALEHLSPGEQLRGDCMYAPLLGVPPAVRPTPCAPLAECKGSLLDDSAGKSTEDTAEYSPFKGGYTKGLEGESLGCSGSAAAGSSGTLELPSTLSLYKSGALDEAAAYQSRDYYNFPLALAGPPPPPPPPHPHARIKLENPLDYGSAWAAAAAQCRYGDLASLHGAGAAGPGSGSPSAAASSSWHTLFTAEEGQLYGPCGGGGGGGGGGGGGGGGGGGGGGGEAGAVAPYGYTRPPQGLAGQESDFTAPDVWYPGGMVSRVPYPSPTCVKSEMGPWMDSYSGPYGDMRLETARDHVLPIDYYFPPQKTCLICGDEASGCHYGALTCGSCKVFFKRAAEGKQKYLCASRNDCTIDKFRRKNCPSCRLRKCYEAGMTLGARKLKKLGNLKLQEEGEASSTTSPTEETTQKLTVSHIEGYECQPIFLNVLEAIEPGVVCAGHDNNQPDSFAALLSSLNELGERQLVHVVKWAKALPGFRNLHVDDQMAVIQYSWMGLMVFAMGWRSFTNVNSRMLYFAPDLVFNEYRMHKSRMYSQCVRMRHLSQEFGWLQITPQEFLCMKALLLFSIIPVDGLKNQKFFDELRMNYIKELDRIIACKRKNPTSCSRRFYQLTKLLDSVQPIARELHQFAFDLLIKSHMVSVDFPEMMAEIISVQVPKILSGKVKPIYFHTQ
Description: The determination evaluated the properties of the compounds in Lncap cells. Intracellular androgen receptor was determined by In-Cell-Western according to the determination steps described below.
In poly-D-Lysin pretreated 96-well cell culture plate (Corning 3599), LNcap cells were divided into 100 μL/well volume, and inoculated with 30,000 cells/well in LNcap cell assay medium [DMEM containing phenol red (Gibco catalog number: 11995065); fetal bovine serum FBS (Gibco catalog number: 10099141C)]. Cells were cultured for at least two days.
1. First treated cells with compound. Compounds were gradient diluted with DMSO and cell culture medium, so that DMSO contained in cell culture plates was diluted to 0.5% —polypropylene plates were used according to the following protocol: (1)(i) 200× stock plate in DMSO was prepared; (ii) 10 mM stock solution was diluted 1:4 with DMSO (10 μL stock solution+40 μL DMSO)=2000 μM, then entered into row 2; (iii) 1:4 (10 μL protac+40 μL DMSO) gradient dilution was performed from row 2 to row 9, and row 1 was reserved for […] reference compound and row 10 for DMSO. (iv) A total of 8 concentrations (final concentrations on the 200× plate were 2000 μM, 400 μM and 80 μM, etc.). (2) (i) 3× stock solution was prepared in the medium. (ii) 3 μL of 200× stock solution was transferred to 197 µL of culture medium (using 12-channel pipette, from line 1 to line 10), i.e. 3× stock solution plate. (iii) The stock solution plate was mixed evenly. (3) (i) The culture medium of […] cells was replaced with fresh culture medium, 100 μL volume culture medium. (ii) The well-mixed 3× stock solution was transferred to the cell culture plate (using a 12-channel pipette, and 50 μL of stock solution was transferred from line 1 to line 10). (iii) Cells were cultured for 24 hours.
2. The expression level of intracellular androgen receptor after compound treatment was […] and determined according to the following method.
(1)(i) Equal volume of 8% paraformaldehyde was added to the cell culture plate for cell fixation. The fixing solution in the cell plate was discarded and washed three times with PBS. (ii) Triton solution (1:1000 dilution of the stock solution) was prepared. The solution in the cell plate was discarded, and 200 μL of Triton diluent was added into each well. (iii) 2×blocking solution (1:4 dilution of 10×blocking stock solution) was prepared. The solution in the cell plate was discarded, and 100 μL of 2×blocking solution was added into each well. (iv) Primary antibody solution (Androgen receptor Rabbbit mAb, Cell Signaling Technology catalog number: 5153; 1:1000 dilution) was prepared. The solution in the cell plate was discarded, 100 μL volume of primary antibody diluent was added to each well, and incubated at 4° C. overnight. (v) The primary antibody solution was discarded and the cell plate was washed with 1×Wash buffer. (vi) Secondary antibody solution (GOAT Antirabbit IgG (H+L), HRP, Thermo catalog number: 31460; 1:5000 dilution) was prepared, and 100 μL volume of secondary antibody dilution was added to each well for incubation. (vii) The secondary antibody solution in the cell plate was discarded and the cell plate was washed with 1×Wash buffer. (viii) TMB chromogenic solution (BD catalog number: 550534) was prepared, and 100 μL chromogenic solution was added into each well. (ix) 50 μL volume of stop solution (BD catalog number: 550534) was added to each well. (x) The absorption values at OD 450 nm and 570 nm were read though EnVision. (2) (i) Normalized analysis was performed on the number of cells in each well. The solution in the cell plate was discarded, and washed with wash buffer for three times. (ii) Janus dilution (1:3 dilution) was prepared. (iii) 50 μL volume diluent was added to each well for incubation. (iv) The solution in the plate was discarded and washed with deionized water. […]

[2] = tested on: LNcap FGC cells; test: Inhibition of proliferation of LNcap FGC cells (Cell Titer Glo, 6 days); format: cell-based; details: Homo sapiens, LNCaP, 144 h
Description: Tumor cell line LNcap FGC (ATCC catalog number CRL-1740) was cultured in RPMI 1640 (Gibco catalog number 11875-093) and DMEM (Gibco catalog number. 11965-092) medium containing 10% FBS (Gibco catalog number 10099-141C), respectively.
LNcap FGC cells were inoculated in a 384-well plate (Perkin Elmer catalog number 6007460) at a cell density of 400 cells/well in a volume of 20 μL/well and incubated overnight in a carbon dioxide incubator (Thermo). The prepared compound solutions of different concentrations were added in a volume of 5 μL/well. The corresponding vehicle control was set at the same time. After being cultured in the incubator for 6 days, the cell plate and the contents were equilibrated to room temperature, and 25 μL of Cell Titer Glor (Promega catalog number G7573) was added to each well, shook and mixed well, incubated in dark for 10-30 minutes, and the signal values were detected with Envision microplate reader (PerkinElmer).
The percentage inhibition rate of compound-treated wells was calculated from the vehicle control wells on the plate, and the percentage inhibition rate data corresponding to different concentrations were fitted by GraphPad prism, and the IC50 values were calculated by 4-parameter nonlinear logic formula.

Structure (SMILES) | Dmax [1] [%] | DC50 [1] [µM] | Emax [2] [%] | IC50 [2] [µM]
CC1(C)C(=O)N(c2ccc(C#N)c(Cl)c2)c2ccc(-c3ccc(N4CC(CN5CCN(c6ccc7c(c6)C(=O)N(C6CCC(=O)NC6=O)C7=O)CC5)C4)cc3)cc21 (stereo not drawn) [Compound 1] | 82 | 0.0903 | 91 | 0.0661
CC1(C)C(=O)N(c2ccc(C#N)c(C(F)(F)F)c2)c2ccc(-c3ccc(N4CC(CN5CCN(c6ccc7c(c6)C(=O)N(C6CCC(=O)NC6=O)C7=O)CC5)C4)cc3)cc21 (stereo not drawn) [Compound 3] | 89 | 0.0871 | 93 | 0.0548
CC1(C)C(=O)N(c2ccc(C#N)c(Cl)c2)c2ccc(-c3ccc(N4CC(CN5CCN(c6ccc7c(c6)C(=O)N(C6CCC(=O)NC6=O)C7=O)CC5)C4)nc3F)cc21 (stereo not drawn) [Compound 14] | 93 | 0.0663 | 100 | 0.0607
